PubChem BioAssay AID262 (DTP/NCI, 2004)
Several values for one entry are separate records, joined by “and”; a condition that tells them apart may be missing. Equal values may be shown once.

System: LX-1 lung xenograft sc, nude mice, tumor weight
Assay: NCI In Vivo Anticancer Drug Screen. Data for tumor model Human Lung LX-1 Xenograft (subcutaneous) in NU/NU Swiss (nude) mice
Conditions: endpoint: optimum tumor weight change, higher = larger tumour
Protocol: The antitumor activity of compounds was measured in mice bearing transplantable tumors. Survival or tumor size were measured and the results are expressed as the measurement made in the treated group (T) divided by the measurement made in the vehicle treated control group (C). The tumor model used in this assay is Human Lung LX-1 Xenograft (subcutaneous) in NU/NU Swiss (nude) mice

[1] = dose: 5.0 mg/kg/injection, schedule: Q04DX003 (ip), vehicle: Klucel (hydroxypropylcellulose) (HPC)
[2] = dose: 100.0 mg/kg/injection, schedule: Q04DX003 (ip), vehicle: saline
[3] = dose: 200.0 mg/kg/injection, schedule: Q04DX003 (ip), vehicle: saline
[4] = dose: 100.0 mg/kg/injection, schedule: Q04DX003 (ip), vehicle: suspension in saline
[5] = dose: 100.0 mg/kg/injection, schedule: Q04DX003 (ip), vehicle: saline with Tween-80
[6] = dose: 50.0 mg/kg/injection, schedule: Q04DX003 (ip), vehicle: saline
[7] = dose: 25.0 mg/kg/injection, schedule: Q04DX003 (ip), vehicle: Klucel (hydroxypropylcellulose) (HPC)
[8] = dose: 100.0 mg/kg/injection, schedule: Q04DX003 (ip), vehicle: Klucel (hydroxypropylcellulose) (HPC)
[9] = dose: 200.0 mg/kg/injection, schedule: Q04DX003 (ip), vehicle: suspension in saline
[10] = dose: 400.0 mg/kg/injection, schedule: Q04DX003 (ip), vehicle: saline
[11] = dose: 400.0 mg/kg/injection, schedule: Q04DX003 (ip), vehicle: suspension in saline
[12] = dose: 800.0 mg/kg/injection, schedule: Q04DX003 (ip), vehicle: saline
[13] = dose: 1600.0 mg/kg/injection, schedule: Q04DX003 (ip), vehicle: saline
[14] = dose: 4.0 mg/kg/injection, schedule: Q04DX003 (ip), vehicle: saline
[15] = dose: 8.0 mg/kg/injection, schedule: Q04DX003 (ip), vehicle: saline
[16] = dose: 2.0 mg/kg/injection, schedule: Q04DX003 (ip), vehicle: saline
[17] = dose: 1.5 mg/kg/injection, schedule: Q04DX003 (ip), vehicle: saline
[18] = dose: 50.0 mg/kg/injection, schedule: Q04DX003 (ip), vehicle: saline with Tween-80
[19] = dose: 50.0 mg/kg/injection, schedule: Q04DX003 (ip), vehicle: Klucel (hydroxypropylcellulose) (HPC)
[20] = dose: 12.5 mg/kg/injection, schedule: Q04DX003 (ip), vehicle: Klucel (hydroxypropylcellulose) (HPC)
[21] = dose: 1.0 mg/kg/injection, schedule: Q04DX003 (ip), vehicle: saline

Compound: COc1cc([C@@H]2c3cc4c(c(O)c3C[C@H]3COC(=O)[C@@H]32)OCO4)cc(OC)c1O
- T/C (dose: 3.13 mg/kg/injection, schedule: Q04DX003 (ip), vehicle: saline): 122 % of control
- T/C (dose: 6.25 mg/kg/injection, schedule: Q04DX003 (ip), vehicle: saline): 55 % of control

Compound: CN1N=C(N)c2cn(C3OC(COP(=O)(O)O)C(O)C3O)c3ncnc1c23 (stereo not given)
- T/C (dose: 50.0 mg/kg/injection, schedule: Q04DX003 (ip), vehicle: water): 86 % of control

Compound: NC(Cc1ccc(N(CCCl)CCCl)cc1)C(=O)O (stereo not given)
- T/C [1]: 66 % of control

Compound: CN(N=O)C(=O)N[C@@H](C=O)[C@@H](O)[C@H](O)[C@H](O)CO
- T/C [2]: 150 % of control
- T/C [3]: 64 % of control

Compound: CO[C@H]1C[C@](C)(O)Cc2cc3c(c(O)c21)C(=O)c1c(O)cc2c(c1C3=O)O[C@@H]1O[C@@]2(C)[C@H](O)[C@@H](N(C)C)[C@@H]1O
- T/C (dose: 6.25 mg/kg/injection, schedule: Q04DX003 (ip), vehicle: other): 53 % of control
- T/C (dose: 12.5 mg/kg/injection, schedule: Q04DX003 (ip), vehicle: other): 114 % of control

Compound: CC(CN1CC(=O)NC(=O)C1)N1CC(=O)NC(=O)C1 (stereo not given)
- T/C (dose: 50.0 mg/kg/injection, schedule: Q04DX003 (ip), vehicle: suspension in saline): 70 % of control
- T/C [4]: 53 % of control

Compound: Nc1ccc(Cl)cc1N
- T/C [5]: 101 % of control

Compound: Oc1ccc(O)cc1
- T/C [6]: 201 % of control

Compound: CCc1ccccc1N1CCN(C(=O)c2cc(OC)c(OC)c(OC)c2)CC1
- T/C [7]: 62 % of control and 85 % of control
- T/C [8]: 60 % of control

Compound: CC(C)=CCNc1ncnc2c1ncn2C1OC(CO)C(O)C1O (stereo not given)
- T/C [9]: 150 % of control

Compound: N=c1ccn2c(n1)OC1C(O)C(CO)OC12 (stereo not given)
- T/C [3]: 66 % of control
- T/C [10]: 83 % of control
- T/C [11]: 45 % of control and 61 % of control
- T/C [12]: 41 % of control
- T/C (dose: 800.0 mg/kg/injection, schedule: Q04DX003 (ip), vehicle: suspension in saline): 17 % of control
- T/C [13]: 18 % of control
- T/C (dose: 1600.0 mg/kg/injection, schedule: Q04DX003 (ip), vehicle: suspension in saline): 27 % of control

Compound: Cc1c(N)nc(C(CC(N)=O)NCC(N)C(N)=O)nc1C(=O)NC(C(=O)NC(C)C(O)CC(=O)NC(C(=O)NC(OC1OC(C)C(N)C(O)C1O)C(O)c1nc(-c2nc(C(=O)NCCCC(N)CC(=O)NCCCNCCCCN)cs2)cs1)C(C)O)C(OC1OC(CO)C(O)C(O)C1OC1OC(CO)C(O)C(OC(N)=O)C1O)c1cnc[nH]1 (stereo not given)
- T/C [14]: 52 % of control
- T/C [15]: 23 % of control

Compound: Cc1c(N)nc([C@H](CC(N)=O)NC[C@H](N)C(N)=O)nc1C(=O)N[C@H](C(=O)N[C@H](C)[C@@H](O)CC(=O)N[C@H](C(=O)NC(O[C@@H]1O[C@@H](C)[C@@H](N)[C@@H](O)[C@H]1O)C(O)c1nc(-c2nc(C(=O)NCCCCN)cs2)cs1)[C@@H](C)O)[C@@H](O[C@@H]1O[C@@H](CO)[C@@H](O)[C@H](O)[C@@H]1O[C@H]1O[C@H](CO)[C@@H](O)[C@H](OC(N)=O)[C@@H]1O)c1c[nH]cn1 (stereo not given in full)
- T/C [16]: 77 % of control

Compound: CC1CCC(NC(=O)N(CCCl)N=O)CC1 (stereo not given)
- T/C [1]: 73 % of control
- T/C (dose: 10.0 mg/kg/injection, schedule: Q04DX003 (ip), vehicle: Klucel (hydroxypropylcellulose) (HPC)): 32 % of control

Compound: C[n+]1c(-c2cccc3ccccc23)c2cc(N)ccc2c2ccccc21
- T/C (dose: 0.75 mg/kg/injection, schedule: Q04DX003 (ip), vehicle: saline): 61 % of control
- T/C [17]: 57 % of control

Compound: O=Cc1ccc(O)c(O)c1
- T/C (dose: 12.5 mg/kg/injection, schedule: Q04DX003 (ip), vehicle: saline with Tween-80): 91 % of control
- T/C (dose: 25.0 mg/kg/injection, schedule: Q04DX003 (ip), vehicle: saline with Tween-80): 107 % of control
- T/C [18]: 114 % of control

Compound: N=c1nc2n(cc1F)[C@@H]1O[C@H](CO)[C@@H](O)[C@@H]1O2
- T/C [2]: 67 % of control
- T/C [3]: 59 % of control
- T/C [10]: 78 % of control
- T/C [12]: 72 % of control

Compound: CC(C)CCCCCCCCCCCCC(=O)NCC(=O)NC1C(C)OC(Nc2ncnc3nc[nH]c23)C(O)C1O (stereo not given)
- T/C (dose: 6.25 mg/kg/injection, schedule: Q04DX003 (ip), vehicle: saline with Tween-80): 34 % of control

Compound: N[C@H](C(=O)O)[C@@H]1CC(Cl)=NO1
- T/C (dose: 8.0 mg/kg/injection, schedule: Q01DX009 (ip), vehicle: saline): 31 % of control
- T/C (dose: 16.0 mg/kg/injection, schedule: Q01DX009 (ip), vehicle: saline): 17 % of control
- T/C (dose: 32.0 mg/kg/injection, schedule: Q01DX009 (ip), vehicle: saline): 24 % of control
- T/C [4]: 36 % of control
- T/C [9]: 27 % of control
- T/C [10]: 6 % of control
- T/C [11]: 15 % of control

Compound: CC(=O)Oc1ccc[nH]c1=O
- T/C [18]: 91 % of control
- T/C [5]: 81 % of control
- T/C (dose: 400.0 mg/kg/injection, schedule: Q04DX003 (ip), vehicle: saline with Tween-80): 76 % of control
- T/C (dose: 800.0 mg/kg/injection, schedule: Q04DX003 (ip), vehicle: saline with Tween-80): 73 % of control

Compound: O=C(O)CP(=O)(O)O
- T/C [10]: 98 % of control
- T/C [12]: 90 % of control
- T/C [13]: 75 % of control

Compound: CC(=O)OCC(=O)[C@@]12OC(C)(C)O[C@@H]1C[C@H]1[C@@H]3CC(C=O)=C4C=C(OCCCl)CC[C@]4(C)[C@@]3(F)[C@@H](O)C[C@@]12C
- T/C [7]: 96 % of control
- T/C [19]: 106 % of control

Compound: CCC[CH2][Sn]1([CH2]CCC)[O]C2C(CO)OC(n3ccc(N)nc3=O)C2[O]1 (stereo not given)
- T/C (dose: 3.13 mg/kg/injection, schedule: Q04DX003 (ip), vehicle: Klucel (hydroxypropylcellulose) (HPC)): 107 % of control and 108 % of control
- T/C (dose: 6.25 mg/kg/injection, schedule: Q04DX003 (ip), vehicle: Klucel (hydroxypropylcellulose) (HPC)): 197 % of control
- T/C [20]: 77 % of control

Compound: Nc1cc2[nH]cnc2c(=O)[nH]1
- T/C [6]: 96 % of control
- T/C [2]: 123 % of control
- T/C [3]: 112 % of control

Compound: O=S(CCCl)CCCl
- T/C [19]: 61 % of control

Compound: COc1ccc2c(NCCCCCCCCNc3c4ccccc4nc4cc(OC)ccc34)c3ccccc3nc2c1
- T/C (dose: 0.5 mg/kg/injection, schedule: Q04DX003 (ip), vehicle: distilled water + alcohol): 67 % of control
- T/C (dose: 0.5 mg/kg/injection, schedule: Q04DX003 (ip), vehicle: saline): 60 % of control
- T/C (dose: 1.0 mg/kg/injection, schedule: Q04DX003 (ip), vehicle: distilled water + alcohol): 45 % of control
- T/C [21]: 61 % of control
- T/C (dose: 2.0 mg/kg/injection, schedule: Q04DX003 (ip), vehicle: distilled water + alcohol): 79 % of control
- T/C [16]: 86 % of control
- T/C (dose: 4.0 mg/kg/injection, schedule: Q04DX003 (ip), vehicle: distilled water + alcohol): 45 % of control
- T/C [14]: 65 % of control

Compound: COc1ccc(C(N)=O)cc1N=NN(C)C
- T/C (dose: 18.75 mg/kg/injection, schedule: Q04DX003 (ip), vehicle: Klucel (hydroxypropylcellulose) (HPC)): 60 % of control

Compound: CO[C@@]12[C@H](COC(N)=O)C3=C(C(=O)C(C)=C(N)C3=O)N1C[C@@H]1N[C@@H]12
- T/C [17]: 98 % of control
- T/C (dose: 3.0 mg/kg/injection, schedule: Q04DX003 (ip), vehicle: saline): 40 % of control

Compound: O=C[C@@H](CO)O[C@H](C=O)n1cnc2c(=O)[nH]cnc21
- T/C [4]: 92 % of control
- T/C [9]: 73 % of control
- T/C [11]: 62 % of control

Compound: C=CC(=O)N1CN(C(=O)C=C)CN(C(=O)C=C)C1
- T/C (dose: 1.5 mg/kg/injection, schedule: Q04DX003 (ip), vehicle: saline with Tween-80): 89 % of control
- T/C (dose: 3.0 mg/kg/injection, schedule: Q04DX003 (ip), vehicle: saline with Tween-80): 62 % of control
- T/C (dose: 6.0 mg/kg/injection, schedule: Q04DX003 (ip), vehicle: saline with Tween-80): 80 % of control

Compound: CC[C@](O)(C(=O)O)c1cc2n(c(=O)c1CO)Cc1cc3ccccc3nc1-2
- T/C [21]: 40 % of control
- T/C [14]: 26 % of control and 40 % of control
- T/C [15]: 32 % of control and 35 % of control
- T/C (dose: 16.0 mg/kg/injection, schedule: Q04DX003 (ip), vehicle: saline): 29 % of control

Compound: O=[N+]([O-])/C=C\c1ccc2c(c1)OCO2
- T/C [20]: 89 % of control
- T/C [7]: 63 % of control and 88 % of control
- T/C [19]: 64 % of control and 73 % of control
- T/C [8]: 103 % of control
